Test results: patent EP4610269A1, “UROKINASE PLASMINOGEN ACTIVATOR SURFACE RECEPTOR (UPAR) LIGANDS FOR DIAGNOSTIC OR THERAPEUTIC USE” (3B Pharmaceuticals GmbH, priority 2024, dated 2025)
Where two headings read alike, the source gives them in different places. *1 amine or outer side, *2 acyl side, *3 side chain or, on linkers, in order; H or OH if unused. Where a SMILES comes first, the peptide text is derived from it. Bridges are numbered along the chain shown (N, C = ends). [ ]: non-standard residue; d: D form. The star is where a group is joined. DOTA = O=C(O)CN1CCN(CC(=O)O)CCN(CC(=O)*)CCN(CC(=O)O)CC1; Pro(cis-4-F) = O=C(O)[C@@H]1C[C@H](F)CN1; Glutaryl = O=C(CCCC(=O)[*:2])[*:1]; Hyp = O=C(O)[C@@H]1C[C@@H](O)CN1; Pentanoyl(4-Me) = CC(C)CCC(=O)*; Cha = N[C@@H](CC1CCCCC1)C(=O)O; Cit = NC(=O)NCCC[C@H](N)C(=O)O; Butoxycarbonyl = CCCCOC(=O)*; Api = NC1(C(=O)O)CCNCC1; Nva = CCC[C@H](N)C(=O)O; Hexanoyl = CCCCCC(=O)*; Pentanoyl = CCCCC(=O)*; Aib = CC(C)(N)C(=O)O

Columns and labels:
[1] = target: T1, uPAR-expressing HEC-265 human endometrial adenocarcinoma cells (Homo sapiens, UniProt Q03405); assay: Competitive FACS binding assay; conditions: pIC50 category of FACS binding
T1 construct: Cell surface uPAR-expressing HEC-265 human endometrial adenocarcinoma cells; host or cells: HEC-265
T1 sequence (Q03405 23-335): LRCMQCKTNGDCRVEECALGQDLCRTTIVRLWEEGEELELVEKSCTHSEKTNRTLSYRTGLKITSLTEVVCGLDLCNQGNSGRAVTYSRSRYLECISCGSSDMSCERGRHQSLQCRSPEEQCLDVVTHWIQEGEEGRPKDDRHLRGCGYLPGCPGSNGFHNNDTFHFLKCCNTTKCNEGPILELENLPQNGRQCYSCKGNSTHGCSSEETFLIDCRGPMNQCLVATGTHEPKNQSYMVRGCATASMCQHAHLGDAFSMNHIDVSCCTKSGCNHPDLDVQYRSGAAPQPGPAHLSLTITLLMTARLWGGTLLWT
Outline: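 HEC-265 cells incubated 1 h at 4 °C with 10 nM biotinylated uPAR peptide tracer plus increasing test compound, then stained with APC-streptavidin on ice. Median APC fluorescence by flow cytometry; 4PL fit gives pIC50.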

[2] = target: T2, human uPAR (uPAR-Fc) (Homo sapiens, UniProt Q03405); assay: Surface plasmon resonance (SPR) assay, single cycle kinetics; assay type: binding; conditions: pKD category for uPAR SPR activity assay, uPAR-Fc on Protein A-Chip, 25°C; for Kd: read-out: pKD CAT (converted)
T2 construct: comprising amino acids Leu23-Arg303 according to UniProt entry Q03405.1; purchased R&D Systems 10378-UK-100
T2 sequence (Q03405 23-303): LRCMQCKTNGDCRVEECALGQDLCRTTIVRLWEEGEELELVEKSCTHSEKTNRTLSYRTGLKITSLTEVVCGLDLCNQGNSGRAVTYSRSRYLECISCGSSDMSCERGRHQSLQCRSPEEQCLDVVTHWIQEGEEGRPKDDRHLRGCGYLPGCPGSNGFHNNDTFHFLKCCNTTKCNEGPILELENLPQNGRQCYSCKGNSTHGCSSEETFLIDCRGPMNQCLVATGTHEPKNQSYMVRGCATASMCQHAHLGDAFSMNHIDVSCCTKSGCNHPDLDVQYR
Outline: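 uPAR-Fc (Leu23-Arg303 extracellular domains, human IgG1 Fc) captured on Protein A chip to ~2000 RU; single-cycle kinetics at 25°C in HEPES running buffer pH 7.4 with 0.1% DMSO. KD from double-referenced sensorgrams fitted to 1:1 Langmuir model, reported as pKD.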

IC50 [1] | Kd [2] | Kd ([2]; single cycle kinetics) | pIC50 CAT [1] | pKD CAT ([2]; single cycle kinetics) | Compound
≤ 10 nM | < 1.58 nM |  |  |  | CC[C@H](C)[C@@H]1NC(=O)C2(CCN(C(=O)CN3CCN(CC(=O)O)CCN(CC(=O)O)CCN(CC(=O)O)CC3)CC2)NC(=O)[C@@H]2CCCN2C(=O)[C@H](Cc2ccccc2)NC(=O)[C@H](Cc2ccc(O)cc2)NC(=O)[C@H](CCC(N)=O)NC(=O)[C@H](CCCNC(=N)N)NC(=O)[C@@H](NC(=O)CCC(C)C)CSSC[C@@H](C(N)=O)NC(=O)[C@H](CC(C)C)NC1=O [UPAR-152, iHex-[Cys-Arg-Gln-Tyr-Phe-Pro-Apc(DOTA)-Ile-Leu-Cys]-NH2] ({Pentanoyl(4-Me)}-CRQYFP[Api](DOTA)ILC-NH2; disulfide 1-10)
≥ 126 nM |  | > 100 nM |  |  | CC[C@H](C)[C@@H]1NC(=O)[C@@H](C)NC(=O)[C@@H]2CCCN2C(=O)[C@H](Cc2ccccc2)NC(=O)[C@H](Cc2ccc(O)cc2)NC(=O)[C@H](CCC(N)=O)NC(=O)[C@H](CCCNC(N)=O)NC(=O)[C@@H](NC(=O)CCCC(=O)O)CSSC[C@@H](C(N)=O)NC(=O)[C@H](CC(C)C)NC1=O [UPAR-359, Glutar-[Cys-Cit-Gln-Tyr-Phe-Pro-ala-Ile-Leu-Cys]-NH2] (Glutaryl-C[Cit]QYFP[dA]ILC-NH2; disulfide 1-10)
≤ 10 nM |  | < 1.58 nM |  |  | CCCCC(=O)N[C@H]1CSSC[C@@H](C(N)=O)NC(=O)[C@H](CCC)NC(=O)[C@H]([C@@H](C)CC)NC(=O)[C@@H]2C[C@@H](O)CN2C(=O)[C@H](CC(C)C)NC(=O)[C@H](Cc2ccccc2)NC(=O)[C@H](Cc2ccc(O)cc2)NC(=O)[C@H](CCC(N)=O)NC(=O)[C@H](CCCNC(=N)N)NC1=O [UPAR-433, Pent-[Cys-Arg-Gln-Tyr-Phe-Leu-Hyp-Ile-Nva-Cys]-NH2] (Pentanoyl-CRQYFL[Hyp]I[Nva]C-NH2; disulfide 1-10)
≤ 10 nM |  | < 1.58 nM |  |  | CCC[C@@H]1NC(=O)[C@H]([C@@H](C)CC)NC(=O)[C@@H]2C[C@@H](O)CN2C(=O)[C@@H]2CCCN2C(=O)[C@H](Cc2ccccc2)NC(=O)[C@H](Cc2ccc(O)cc2)NC(=O)[C@H](CCC(N)=O)NC(=O)[C@H](CCCNC(=N)N)NC(=O)[C@@H](NC(=O)[C@H](CC2CCCCC2)NC(C)=O)CSSC[C@@H](C(N)=O)NC1=O [UPAR-372, Ac-Cha-[Cys-Arg-Gln-Tyr-Phe-Pro-Hyp-Ile-Nva-Cys]-NH2] (Ac-[Cha]CRQYFP[Hyp]I[Nva]C-NH2; disulfide 2-11)
≤ 10 nM | < 1.58 nM |  |  |  | CCCCCC(=O)N[C@H](C(=O)N[C@@H](CC(C)C)C(=O)N[C@H]1CSSC[C@@H](C(N)=O)NC(=O)[C@H](CC(C)C)NC(=O)[C@H]([C@@H](C)CC)NC(=O)[C@H](C)NC(=O)[C@@H]2CCCN2C(=O)[C@H](Cc2ccccc2)NC(=O)[C@H](Cc2ccc(O)cc2)NC(=O)[C@H](Cc2ccc(O)cc2)NC(=O)[C@H](CCC(=O)O)NC1=O)[C@@H](C)O [UPAR-143, Hex-Thr-Leu-[Cys-Glu-Tyr-Tyr-Phe-Pro-Ala-Ile-Leu-Cys]-NH2] (Hexanoyl-TLCEYYFPAILC-NH2; disulfide 3-12)
 |  |  | A (pIC50 values ≥8.0) | A (pKD values ≥ 8.8) | Succinyl-Nva-[Cys-Cit-Lys(GdDOTA)-Tyr-Phe-Pro-Hyp-Ile-Nva-Cys]-NH2 [UPAR-460]
12.6 to 31.6 nM |  | 10 to 100 nM |  |  | CCCCC(=O)N[C@H]1CSSC[C@@H](C(N)=O)NC(=O)[C@H](CCC)NC(=O)[C@H]([C@@H](C)CC)NC(=O)[C@@H]2C[C@@H](O)CN2C(=O)C(C)(C)NC(=O)[C@H](Cc2ccccc2)NC(=O)[C@H](Cc2ccc(O)cc2)NC(=O)[C@H](CCCCNC(=O)CN2CCN(CC(=O)O)CCN(CC(=O)O)CCN(CC(=O)O)CC2)NC(=O)[C@H]([C@@H](C)O)NC1=O [UPAR-419, Pent-[Cys-Thr-Lys(DOTA)-Tyr-Phe-Aib-Hyp-Ile-Nva-Cys]-NH2] (Pentanoyl-CTK(DOTA)YF[Aib][Hyp]I[Nva]C-NH2; disulfide 1-10)

Compound | IC50 [1] | Kd [2] | Kd ([2]; single cycle kinetics) | pIC50 CAT [1] | pKD CAT ([2]; single cycle kinetics)
CCCCOC(=O)N[C@H]1CSSC[C@@H](C(N)=O)NC(=O)[C@H](CCC)NC(=O)[C@H]([C@@H](C)CC)NC(=O)[C@@H]2C[C@@H](O)CN2C(=O)[C@@H]2C[C@H](F)CN2C(=O)[C@H](Cc2ccccc2)NC(=O)[C@H](Cc2ccc(O)cc2)NC(=O)[C@H](CCCCNC(=O)CN2CCN(CC(=O)O)CCN(CC(=O)O)CCN(CC(=O)O)CC2)NC(=O)[C@H]([C@@H](C)O)NC1=O [UPAR-237, Butoc-[Cys-Thr-Lys(DOTA)-Tyr-Phe-4Cfp-Hyp-Ile-Nva-Cys]-NH2] (Butoxycarbonyl-CTK(DOTA)YF[Pro(cis-4-F)][Hyp]I[Nva]C-NH2; disulfide 1-10) | ≤ 10 nM | < 1.58 nM |  |  | 
